The subject of series [1] is prostanoid pathways (thromboxane B2) in rabbit platelets. In words: Inhibition of the metabolism of [14C]arachidonate in rabbit platelets (disappearance of TXB2). It is filed as cell-based. The settings on record: Oryctolagus cuniculus, Platelet. On the procedure:
1.2--Inhibition of the metabolism of [^14 C]arachidonate in rabbit platelets
12 ml of blood are withdrawn nitracardially into ACD (anticoagulant consisting of an aqueous solution containing 0.27 g of citric acid, 0.5 g of disodium citrate and 0.02 g of glucose for 20 ml of water) in a proportion of 1 volume of ACD for 6 volumes of blood. The mixture is centrifuged (10 minutes, 200×g, 20° C.), and the supernatent (PRP) collected and centrifuged again (15 minutes, 1500×g, 20° C.). The platelet pellet is washed in buffer I [NaCl, 8 g/l; Tris, 1.21 g/l; KCl, 0.2 g/l; gelatin, 2.5 g/l; this mixture is heated to 90° C. to dissolve the gelatin, and then glucose, 1 g/l, and ethylene glycol bis(β-aminoethyl ether) N,N,N',N'-tetraacetic acid or EGTA, 0.075 g/l, are added]. The suspension is centrifuged (15 minutes, 1500×g, 20° C.) and the pellet taken up in buffer II (NaCl, 8 g/l; Tris, 1.21 g/l; KCl, 0.2 g/l; CaCl2, 0.145 g/l; MgCl2, 0.2 g/l; gelatin, 2.5 g/l; the mixture is brought to 90° C., glucose, 1 g/l, is added and the pH is adjusted to 7.4 with 0.1N HCl).
The platelet suspension (0.4 ml/tube) is preincubated for 10 minutes at 37° C., either with 10 μl of DMSO (control), or with varied concentrations of test compounds dissolved in 10 μl of DMSO.
The incubation is carried out in the presence of [^14 C]arachidonate (1 μg, 0.2 μCi) distributed in 0.1 ml of buffer II, and the incubation is then blocked after 15 minutes with 50 μl of citric acid and 250 μl of saturated NaCl.
After extraction with ethyl acetate, the metabolites of [^14 C]arachidonate are separated by thin layer chromatography and quantified using a radio-scanner.
The percentage inhibition of the prostanoid pathways is estimated by measuring the disappearance of thromboxane B2 (TXB2) in terms of the concentration of each compound.
Results corresponding to 50 μM and 100 μM of compounds of formula I are given by way of example in Table II.

In series [2] the test system is lipoxygenase of circulating human leukocytes (PMNs). In words: Inhibition of the lipoxygenase of circulating human leukocytes (PMNs), by radioimmunoassay of LTC4. The settings on record: Leukocyte, 8 min, calcium ionophore A23187 (0.25 μM), 8 minutes at 37° C. The class given is cell-based. How it is done:
1.1--Inhibition of the lipoxygenase of circulating human leukocytes (PMNs), by radioimmunoassay of LTC4 Methods Heparinized human blood is sedimented for 1 hour at 37° C. in sterile saline solution containing 4.5% of Dextran T 500. The upper, leukocyte-rich phase, is collected, deposited on Ficoll-Paque (7:3 v/v) and then centrifuged (20 minutes, 400×g, 4° C.). The centrifugation pellet is treated with 0.75% strength NH4 Cl to lyse the red cells. After centrifugation (20 minutes, 400×g, 4° C.), supernatent is removed and the pellet is resuspended in Dulbecco's PBS buffer containing 1 mM calcium chloride. […] The incubation is blocked by adding one volume of ice-cold water, and the suspension is centrifuged (15 minutes, 1500×g, 4° C.). Aliquots of the supernatent are then subjected to radioimmunoassay (New England Nuclear Kit). The percentage inhibition of the 5-lipoxygenase pathway is measured in terms of the concentration of each compound. From these curves, the concentration which 50% inhibits LTC4 tracer formation (IC50) is deduced.

Series [3] can be described thus: Acute toxicity (LD50) in rats. The settings on record: rat, in vivo, 14 days of observation, with 5% confidence interval. On the procedure:
The rats used are of Wistar strain of average weight 150 g.
The LD50 is determined after 14 days of observation.
The results below give the LD50 values for the compound 3 of the invention, together with the 5% confidence interval.

Series [4] deals with protein influx into the anterior chamber of the eye. In words: Inhibition of protein influx into the anterior chamber of the eye after corneal paracentesis. The settings on record: rabbit eye. The class given is in vivo, albino New Zealand rabbits. On the procedure:
Anti-inflammatory activity measured by the inhibition of protein influx into the anterior chamber of the eye after corneal paracentesis. […] The effect of various concentrations of each compound is measured on 6 eyes of albino New Zealand rabbits.

The test system of series [5] is leukocyte infiltration into the aqueous humour. The settings on record: recent experimental studies; cited from earlier work.

The text below walks through data of patent publication US4785008A, “N-substituted 2-amino-thiazoles, process for their preparation and their therapeutic application” (Laboratoires Chauvin-Blache, priority 1985, dated 1988).

The inhibition is the drop in the measured response relative to a control, in per cent. The low end stands for a weak effect, the high end for a strong effect. The IC50 is the concentration that gives 50% inhibition. The LD50 is the dose at which mortality reaches 50%. Low readings indicate a more toxic substance, high ones a less toxic substance.

In series [1], `Oc1ccccc1Nc1nccs1` [Compound 1] had an inhibition at 50 µM of 34% and an inhibition at 100 µM of 91%. Further, in series [2], the IC50 was 1200 nM.
Turning to `Cc1ccc(Nc2nccs2)c(O)c1.Cl` [Compound 3, 2-(2-hydroxy-4-methylphenyl)aminothiazole hydrochloride], the inhibition at 50 µM in series [1] is 100%. Besides, the inhibition at 100 µM in series [1] came out at 100%. Besides, the LD50 at 336 h worked out at 51 ± 2 mg/kg in series [3] (iv, female rat); 51 ± 2 mg/kg in series [3] (iv, male rat); 2350 ± 90 mg/kg in series [3] (po, female rat); 2950 ± 96 mg/kg in series [3] (po, male rat). Besides, the figures for the “Inhibition (%) of protein influx into the anterior chamber of the eye after corneal paracentesis” value in series [4] (0.1 mg/100 ml), in series [4] (0.5 mg/100 ml) and in series [4] (1 mg/100 ml) were 20%, 35% and 50%, respectively. Also, the half-maximal inhibitory concentration (IC50) in series [2] came out at 330 nM.
With `Oc1cccnc1Nc1nccs1` [Compound 7], in series [1], testing at 50 µM gave an inhibition of 36% and 100 µM produced 36% inhibition.
In the case of `Cc1ccc(O)c(Nc2nccs2)c1` [Compound 4], the inhibition at 50 µM in series [1] amounted to 68%. In series [2], the half-inhibitory concentration (IC50) is 250 nM.
In series [1], `Oc1ccc(Cl)cc1Nc1nccs1` [Compound 2] came in with an inhibition at 50 µM of 100% and an inhibition at 100 µM of 100%. Further, the concentration for half-maximal inhibition (IC50) in series [2] was determined as 300 nM.
In turn, `CC(C)(C)c1ccc(Nc2nccs2)c(O)c1` [Compound 5] returned an inhibition at 50 µM in series [1] of 76%. The IC50 in series [2] worked out at 1600 nM.
`COc1ccc2c(c1)c(CC(=O)O)c(C)n2C(=O)c1ccc(Cl)cc1` [Indomethacin]: the “leukocyte infiltration into the aqueous humour” value in series [5] is “increases the leukocyte infiltration into the aqueous humour”.
In turn, `Cc1cc(C)c(O)c(Nc2nccs2)c1` [Compound 6] yielded an inhibition at 50 µM in series [1] of 70%. In addition, the 50% inhibitory concentration (IC50) in series [2] worked out at 200 nM.
